Reference: patent US10804000B2, “High efficiency continuous-flow production of radioisotopes” (priority 2016, dated 2020)

How the values were obtained:
[1] = Pre-irradiation solubility tests of lanthanide complexes in the water capture matrix (neutron activation analysis of washes); format: physicochemical; settings: for % Activity in wash 1: first pre-irradiation wash with 0.5 mL ultra-pure H2O, 153Sm at 103 keV, 166Ho at 81 keV; for % Activity in wash 1 / % Activity in wash 2: indicates solubility in capture matrix; for solubility in water: in words, from pre-irradiation washes; for % Activity in wash 2: second pre-irradiation wash with H2O
Protocol: The solubility of the lanthanide complexes in the water capture matrix was determined by mixing a few milligrams of the lanthanide-containing target solid thoroughly with 0.5 mL of ultra-pure H2O then separating the solution from the solid utilizing centrifugal filter tubes (EMD Millipore). A second wash of the solid was obtained using the same procedure. The solid and the washes were submitted for neutron activation analysis in order to determine the solubility of the lanthanide containing target in H2O.
Post irradiation, the samples were left to cool for a predetermined amount of time to allow any short-lived radioisotopes to decay, before being transferred to the laboratory for treatment and analysis. The capture matrix was filtered and separated from the solid in order to separate any recoiled radiolanthanide. The solid residue and capture matrix were collected for analysis of the activity of the radiolanthanide. The pre-irradiation solubility test washes along with standards were also prepared for analysis. The samples were analyzed for radiolanthanide activity using a High Purity Germanium detector (HPGe) at the representative gamma energy of the radiolanthanide of interest.
All the samples for a particular compound were irradiated as a group, along with standards for calibration purposes and direct comparisons of activities. In samples that were not treated post irradiation by separation (e.g. as in the case of target and capture matrix) the activity of the radiolanthanide is directly related to the total concentration of the corresponding lanthanide. The count rate measured in each sample was normalized to a single point in time to account for decay during measurements. Both pre-irradiation washes were collected to give an indication of the solubility of the lanthanide complex in the capture matrix (H2O). The second wash was obtained to determine if the lanthanide activity detected in the first wash was actually due to solubility of the lanthanide containing target or due to factors such as impurities or the presence of uncomplexed lanthanide that came off in the first wash. […] Radiolanthanides that recoiled out but reformed bonds with the solid compound would appear as retained as well. […] Activity in the capture matrix may also reflect dissolution of the target matrix rather than recoil.

[2] = Irradiation of ammonium molybdate phosphate powder, 99Mo activity in washes, target and capture matrix
Excerpt: Wash 1, Wash 2, and the irradiated molybdenum target were all analyzed for ^99Mo activity using gamma spectroscopy at the prominent ^99Mo peak of 141 KeV.
Post irradiation the capture matrix was separated from the irradiation target and washed an additional time to determine post irradiation solubility (wash 1).

Substance	% Activity in wash 1 [1] [%]	solubility in water [1]	% Activity in wash 2 [1] [%]	other results
Holmium 4-aminobenzoate [Compound 6]	7.0 ± 1.6	soluble in water	7.7 ± 1.7	–
Holmium 8-hydroxyquinolinate [Compound 5]	–	low solubility in the first wash	–	–
Samarium 4-aminobenzoate [Compound 2]	27.3 ± 3.0	soluble in water	26.8 ± 2.9	–
Samarium 8-hydroxyquinolinate [Compound 4]	–	low	–	–
ammonium molybdate phosphate [Sample 1]	–	–	–	% Activity in wash 1 ([2]; 99Mo, sample 1: powder irradiated 15 min at 8×10^11 n cm^−2 s^−1, contacted with water post irradiation): <1%; % Activity in wash 2 ([2]; 99Mo, sample 1: powder irradiated, contacted with water post irradiation): <1%; 99Mo activity detected in the capture matrix ([2]; sample 1, water contacted post irradiation): less than 1%
ammonium molybdate phosphate [Sample 2]	–	–	–	% Activity in wash 1 ([2]; 99Mo, sample 2: irradiated in contact with water capture matrix, additional wash post irradiation): 1.3%
